Measured values taken from PubChem BioAssay (NCI).
“And” between values parts separate entries of the source, which are not always exact repeats. Equal entries are not always repeated.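 Protocol summary: plate cells (96-well), add compound at 5 concentrations, incubate 48 h, interpolate endpoints linearly. GI50 = concentration required for 50% inhibition of growth. TGI denotes the concentration required for complete inhibition of growth.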

Columns and labels:
Test in all cases: NCI tumour cell line growth inhibition, 48 h
HOP-18 NSCLC = test system: HOP-18 NSCLC
P388/ADR leukemia = test system: P388/ADR leukemia
SN12K1 renal = test system: SN12K1 renal
DLD-1 colon = test system: DLD-1 colon
M19-MEL melanoma = test system: M19-MEL melanoma
XF 498 CNS = test system: XF 498 CNS
DMS 273 small cell lung = test system: DMS 273 small cell lung
P388 leukemia = test system: P388 leukemia
MDA-N = test system: MDA-N
DMS 114 small cell lung = test system: DMS 114 small cell lung
T-47D breast = test system: T-47D breast

Structure (SMILES)	TGI (HOP-18 NSCLC)	TGI (P388/ADR leukemia) [nM]	TGI (SN12K1 renal) [nM]	TGI (DLD-1 colon) [nM]	TGI (M19-MEL melanoma) [nM]	TGI (XF 498 CNS) [nM]	TGI (DMS 273 small cell lung) [nM]	TGI (P388 leukemia) [nM]	TGI (MDA-N) [nM]	TGI (DMS 114 small cell lung) [nM]	GI50 (HOP-18 NSCLC) [nM]	TGI (T-47D breast) [nM]
CC(=O)O[C@H]1C(=O)O[C@@H]2C[C@H]3C(C)=CC(=O)[C@@H](O)[C@]3(C)[C@H]3[C@@]4(O)OC[C@]32[C@@H]1[C@@H](C)[C@H]4O	1530 nM	7510	69.6	403	72	243	68.2	555	127	41		
CNNCc1ccc(C(=O)NC(C)C)cc1	139000 nM and > 500000 nM	> 500000	> 456000	> 500000	> 500000	> 500000	> 500000	> 500000	> 500000		> 500000	> 500000
